Results reported in patent US20070010488A1, “Compounds for modulating cell proliferation” (priority 2005, published 2007).
“And” between values parts separate entries of the source, which are not always exact repeats. Equal entries are not always repeated. Where two headings read alike, the source gives them in different places.

Assays:
[1] = system: OCI-AML2 (AML); assay: Alamar Blue cell viability assay, OCI-AML2; type: cell-based; conditions: Homo sapiens, 72 hours
Experimental: (§1) Each test compound was weighed between the ranges of 0.5-2.0 mg, and then dissolved in a specified volume of DMSO to produce a solution of 10 mM. Appropriate dilutions in cell culture medium were made to produce a stock solution of 400 μM. All subsequent dilutions were also done in cell culture medium. This stock solution was then used for further dilutions to produce the initial concentration to be added to the 50 μL and 450 μL of cells in the 96-well and the 48-well microtiter plates, respectively:
(§2) The initial concentration for cells that were cultured in 50 μL 96-well plates was 40 μM. Once 50 μL of this test solution was added to the cells, this then produced a final dilution of 1:2, giving the desired concentration of 20 μM. Further 1:2 dilutions were made until the desired concentration of […] was reached.
(§3) Compound 1 was used as positive control at concentrations of 1 μM and 3 μM. […] C1 and OCI-AML2 and RPMI8226 cell culture media were assayed by addition of 20 μL of Alamar Blue reagent and incubated for 4 hours before reading. […]
(§4) 50 μL of cell culture medium containing the test compound was added to each well twenty four hours after seeding. […] Proliferation of cells was assessed using the fluorimetric Alamar Blue (CellTiter Blue) test and cell counting.
(§5) For the Alamar Blue assay, untreated cells were used as growth controls. Data were assessed in duplicates. […]

[2] = system: MOLM-13 (AML); assay: Alamar Blue cell viability assay, MOLM-13; type: cell-based; conditions: Homo sapiens, 72 hours
Experimental: as §1
(§6) The initial concentration for cells that were cultured in 50 μL 96-well plates was 40 μM. […]
as §4
(§7) For the Alamar Blue assay, untreated cells were used as growth controls. Data were assessed in duplicates. […] The Alamar Blue cell viability assay was used to determine the IC50 concentrations for the inhibition of cell proliferation or induction of cell death by the ets articles as well as the reference Compound A. Primary data from all assays were plotted for each test compound, cell system and test concentration, with the y-axis representing the readout for cell proliferation/viability and the x-axis representing the compound concentration (μM). […]

[3] = system: KASUMI-1 (AML); assay: Alamar Blue cell viability assay, KASUMI-1; type: cell-based; conditions: Homo sapiens, 72 hours
Experimental: as §1, §6, §4, §7

[4] = system: SKM-1 (AML); assay: Alamar Blue cell viability assay, SKM-1; type: cell-based; conditions: Homo sapiens, 72 hours
Experimental: as §1, §6, §4, §7

[5] = system: MV4-11 (AML); assay: Alamar Blue cell viability assay, MV4-11; type: cell-based; conditions: Homo sapiens, 72 hours
Experimental: as §1, §6, §4, §7

[6] = system: C1 (T-ALL); assay: Alamar Blue cell viability assay, C1; type: cell-based; conditions: Homo sapiens, 72 hours
Experimental: as §1, §2, §3, §4, §5

[7] = system: CCRF-CEM (T-ALL); assay: Alamar Blue cell viability assay, CCRF-CEM; type: cell-based; conditions: Homo sapiens, 72 hours
Experimental: as §1, §6, §4, §7

[8] = system: MOLT-4 (T-ALL); assay: Alamar Blue cell viability assay, MOLT-4; type: cell-based; conditions: Homo sapiens, 72 hours
Experimental: as §1, §6, §4, §7

[9] = system: PEER (B-ALL); assay: Alamar Blue cell viability assay, PEER; type: cell-based; conditions: Homo sapiens, 72 hours
Experimental: as §1, §6, §4, §7

[10] = system: SUP-B15 (B-ALL); assay: Alamar Blue cell viability assay, SUP-B15; type: cell-based; conditions: Homo sapiens, 72 hours
Experimental: as §1, §6, §4, §7

[11] = system: RS4-11 (B-ALL); assay: Alamar Blue cell viability assay, RS4-11; type: cell-based; conditions: Homo sapiens, 72 hours
Experimental: as §1, §6, §4, §7

[12] = system: K562 (CML); assay: Trypan Blue Dye Exclusion and Cell Counting Assay, K562; type: cell-based; conditions: Homo sapiens, 72 hours
Experimental: as §1, §2
(§8) Compound 1 was used as positive control at concentrations of 1 μM and 3 μM. Cells were incubated with the test compounds for 72 hours. C1 and OCI-AML2 and RPMI8226 cell culture media were assayed by addition of 20 μL of Alamar Blue reagent and incubated for 4 hours before reading. Cell counting was utilised for K562 and DAUDI. [drawing 13] […]
as §4

[13] = system: RPMI8226 (myeloma); assay: Alamar Blue cell viability assay, RPMI8226; type: cell-based; conditions: Homo sapiens, RPMI-8226, 72 hours
Experimental: as §1, §2, §3, §4, §5

[14] = system: DAUDI (non-Hodgkin lymphoma); assay: Trypan Blue Dye Exclusion and Cell Counting Assay, DAUDI; type: cell-based; conditions: Homo sapiens, 72 hours
Experimental: as §1, §2, §8, §4

[15] = Mouse pharmacokinetics, intravenous and oral, plasma LC/MSMS; type: in vivo; conditions: Mice CD1; for bioavailability: read-out: Bioavailability factor
Experimental: Compound A (Stored at ca. +5° C.)
Formulation preparation for oral routes: […]
Animal Phase: • Species: Mice CD1 (supplied from Harlan, France) • Routes tested: Intravenous (Mice Nos.39 to 52 incl.), oral low dose (Mice Nos.53 to 63 incl.) and oral high dose (Mice Nos.65 to 76 incl.) • Animals were not fasted.
Times of blood sampling performed from the abdominal aorta (2 animals per time point): • Intravenous route (IV): 5 min, 15 min, 30 min, 1 h, 2 h, 6 h and 24 h • Oral routes (PO): 15 min, 30 min, 1 h, 3 h, 6 h and 24 h
Plasma was harvested by centrifugation of blood at 3500 g for 10 minutes at ca. +5° C.
Plasma was stored at ca. −20° C. until analysis.
Analytical method: LC/MSMS after extraction
Calibration undertaken in plasma (5 levels in mice, twice injected, ranging from 10 to 1000 ng.mL^−1)
HPLC Conditions: • Colonne: Zorbax C18 50×2.1 mm, 3.5 μm • Filter: A102X 5 μm • Injected volume: 20 μL • Mobile phase flow: 0.1 mL.min^−1 • Autosampler temperature: ca. +5° C. • Oven temperature: ca. +30° C. • Run time: 10 min • Mobile phase: deionized water with 0.1% formic acid/methanol with 0.1% formic acid; 30:70 v/v (isocratic) • Retention time: ca. 2.1 min
Extraction Method for Plasma Sample: • 50 μL of plasma combined with 100 μL of methanol • Vortexed a few seconds • Centrifuged 3 min at 13 000 rpm at ca. +5° C. • Diluted 50 μL of the supernatant with 50 μL of deionized water in a HPLC vial for injection • Vortexed a few seconds • Injected into the HPLC/MSMS system Extraction Method for Plasma Calibration Sample: • 50 μL of plasma sample combined with 100 μL of spiking solution • Vortexed a few seconds • Centrifuged 3 min at 13 000 rpm at ca. +5° C. • Diluted 50 μL of the supernatant with 50μL of deionized water in a HPLC vial for injection • Vortexed a few seconds • Injected into the HPLC/MSMS system Results: Animal and Analytical Phase Results: […]

[16] = mouse, plasma, intravenous 3.83 mg/kg
[17] = mouse, plasma, oral high dose 50.2 mg/kg
[18] = mouse, plasma, oral low dose 10.0 mg/kg

IC50 [1]: 1030 nM
IC50 [2]: 1900 nM
IC50 [4]: 560 nM
IC50 [5]: 220 nM
IC50 [7]: 1180 nM
IC50 [8]: 970 nM
IC50 [11]: 450 nM
IC50 [12]: 2500 nM
IC50 [13]: 1500 nM
IC50 [14]: 550 nM
concentration at 0.083 h ([15]; CD1, mouse, plasma, iv, 3.83 mg/kg, intravenous 3.83 mg/kg, 0.083 h, individual mice, read-out: Plasma levels): 200 ng/mL
concentration at 0.25 h ([15]; CD1, mouse, plasma, iv, 3.83 mg/kg, intravenous 3.83 mg/kg, 0.25 h, individual mice, read-out: Plasma levels): 64.4 ng/mL
concentration at 0.5 h ([15]; CD1, mouse, plasma, iv, 3.83 mg/kg, intravenous 3.83 mg/kg, 0.5 h, individual mice, read-out: Plasma levels): 57.5 ng/mL
concentration at 2 h ([15]; CD1, mouse, plasma, iv, 3.83 mg/kg, intravenous 3.83 mg/kg, 2 h, individual mice, read-out: Plasma levels): 17.9 ng/mL
concentration at 0.5 h ([15]; CD1, mouse, plasma, po, 10 mg/kg, oral low dose 10.0 mg/kg, 0.5 h, individual mice, read-out: Plasma levels): 71.7 ng/mL
concentration at 1 h ([15]; CD1, mouse, plasma, po, 10 mg/kg, oral low dose 10.0 mg/kg, 1 h, individual mice, read-out: Plasma levels): 83.5 ng/mL
concentration at 3 h ([15]; CD1, mouse, plasma, po, 10 mg/kg, oral low dose 10.0 mg/kg, 3 h, individual mice, read-out: Plasma levels): 41.7 ng/mL
concentration at 24 h ([15]; CD1, mouse, plasma, po, 10 mg/kg, oral low dose 10.0 mg/kg, 24 h, individual mice, LOQ 10 ng · mL^−1, ND: Not Detectable, read-out: Plasma levels): 5.8 ng/mL
concentration at 0.25 h ([15]; CD1, mouse, plasma, po, 50.2 mg/kg, oral high dose 50.2 mg/kg, 0.25 h, individual mice, read-out: Plasma levels): 819 ng/mL
concentration at 0.5 h ([15]; CD1, mouse, plasma, po, 50.2 mg/kg, oral high dose 50.2 mg/kg, 0.5 h, individual mice, read-out: Plasma levels): 434 ng/mL
concentration at 1 h ([15]; CD1, mouse, plasma, po, 50.2 mg/kg, oral high dose 50.2 mg/kg, 1 h, individual mice, read-out: Plasma levels): 175 ng/mL
concentration at 3 h ([15]; CD1, mouse, plasma, po, 50.2 mg/kg, oral high dose 50.2 mg/kg, 3 h, individual mice, read-out: Plasma levels): 137 ng/mL
% AUCextra ([15]; intravenous 3.83 mg/kg): 3.2%
Plasma levels ([15]; intravenous 3.83 mg/kg, 0.083 h, individual mice, 3.83 mg/kg): 333.91 ng/mL
Plasma levels ([15]; intravenous 3.83 mg/kg, 0.25 h, individual mice, 3.83 mg/kg): 85.28 ng/mL
Plasma levels ([15]; intravenous 3.83 mg/kg, 0.5 h, individual mice, 3.83 mg/kg): 69.56 ng/mL
Plasma levels ([15]; intravenous 3.83 mg/kg, 1 h, individual mice, 3.83 mg/kg): 80.73 ng/mL and 39.25 ng/mL
Plasma levels ([15]; intravenous 3.83 mg/kg, 2 h, individual mice, 3.83 mg/kg): 12.9 ng/mL
Plasma levels ([15]; intravenous 3.83 mg/kg, 6 h, individual mice, LOQ 10 ng · mL^−1, 3.83 mg/kg): 14.94 ng/mL and 7.29 ng/mL
Plasma levels ([15]; intravenous 3.83 mg/kg, 24 h, individual mice, LOQ 10 ng · mL^−1, 3.83 mg/kg): 1.68 ng/mL and 0.36 ng/mL
% AUCextra ([15]; oral high dose 50.2 mg/kg): 0.57%
Plasma levels ([15]; oral high dose 50.2 mg/kg, 0.25 h, individual mice, 50.2 mg/kg): 444.58 ng/mL
Plasma levels ([15]; oral high dose 50.2 mg/kg, 0.5 h, individual mice, 50.2 mg/kg): 393.99 ng/mL
Plasma levels ([15]; oral high dose 50.2 mg/kg, 1 h, individual mice, 50.2 mg/kg): 213.68 ng/mL
Plasma levels ([15]; oral high dose 50.2 mg/kg, 3 h, individual mice, 50.2 mg/kg): 160.65 ng/mL
Plasma levels ([15]; oral high dose 50.2 mg/kg, 6 h, individual mice, 50.2 mg/kg): 23.07 ng/mL and 137.34 ng/mL
Plasma levels ([15]; oral high dose 50.2 mg/kg, 24 h, individual mice, LOQ 10 ng · mL^−1, 50.2 mg/kg): 2.36 ng/mL and 1.04 ng/mL
% AUCextra ([15]; oral low dose 10.0 mg/kg): 4.1%
Plasma levels ([15]; oral low dose 10.0 mg/kg, 0.25 h, individual mice, 10 mg/kg): 67.54 ng/mL and 178.37 ng/mL
Plasma levels ([15]; oral low dose 10.0 mg/kg, 0.5 h, individual mice, 10 mg/kg): 83.39 ng/mL
Plasma levels ([15]; oral low dose 10.0 mg/kg, 1 h, individual mice, 10 mg/kg): 70.35 ng/mL
Plasma levels ([15]; oral low dose 10.0 mg/kg, 3 h, individual mice, 10 mg/kg): 40.47 ng/mL
Plasma levels ([15]; oral low dose 10.0 mg/kg, 6 h, individual mice, LOQ 10 ng · mL^−1, 10 mg/kg): 2.67 ng/mL and 6.30 ng/mL
AUC [15, 16]: 254 ng·h/mL
AUC(0-t) [15, 16]: 246 ng·h/mL
Vd [15, 16]: 119 L/kg
clearance ([15]; mouse, plasma, intravenous 3.83 mg/kg, read-out: Total Clearance (converted)): 251 mL/min/kg
half-life ([15]; mouse, plasma, intravenous 3.83 mg/kg, read-out: T½ (converted)): 330 min
AUC [15, 17]: 1400 ng·h/mL
AUC(0-t) [15, 17]: 1390 ng·h/mL
Cmax [15, 17]: 632 ng/mL
Tmax [15, 17]: 15 min
bioavailability ([15]; mouse, plasma, oral high dose 50.2 mg/kg vs intravenous): 43.4%
AUC [15, 18]: 321 ng·h/mL
AUC(0-t) [15, 18]: 308 ng·h/mL
Cmax [15, 18]: 123 ng/mL
Tmax [15, 18]: 15 min
bioavailability ([15]; mouse, plasma, oral low dose 10.0 mg/kg vs intravenous): 48%
SMILES: CCN1C/C(=C\c2cc(OC)c(OC)c(OC)c2)C(=O)/C(=C/c2cc(OC)c(OC)c(OC)c2)C1 [Compound A]
IC50 [3]: 560 nM
IC50 [6]: 180 nM
IC50 [9]: 720 nM
IC50 [10]: 1030 nM
